The structures appear in SMILES notation.

The test system of data set [1] is ovary carcinoma. The settings on record: in combination with vinblastin, actinomycin and prednisolone; cited from earlier work.
Data set [2] concerns regrafted Schvetz's erythroleukosis. Briefly: Antitumor activity against regrafted Schvetz's erythroleukosis in rats. It counts as in vivo, white non-descript rats. The protocol:
Their antitumor activity was studies in respect of regrafted Schvetz's erythroleukosis. The antitumor activity of each of the compounds according to the present invention was assessed from the experiments carried out on white non-descript rats with a mass of 150-200 g (10 animals in a group). The animals were hypodermally inoculated (in the thigh) with 2×10^8 cells of a regrafted Schvetz's erythroleukosis strain. On the 4th day after inoculation of the tumor cells, i.e. during the period of the lograithmic phase of the tumor growth the animals were administered with the compounds according to the present invention. They were administered once intraperitoneally or directly into the tumor node as powders. The compounds according to the present invention were administered in maximum effective and minimum effective doses:
The antitumor effect of the compounds according to the present invention was studies in comparison with the control and with the known preparations--CDDP and polymethylsiloxane.
The administered dose of CDDF was 8.1 mg/kg, that of polymethylsiloxane--4,000 mg/kg. […] Polymethylsiloxane was introduced in the form of a powder. Prior to administration the powders of polymethylsiloxane and of the compounds according to the present invention were sterilized by autoclaving in sealed flasks or in package from parchment paper for one hour under the excessive pressure of 1.0 atm and at the temperatuer of 100° C.
The animals were narcotized by way of a hypodermal injection of hexenal in a dose of from 40 to 60 mg/kg in the case of an intraperitoneal adminsitration of the compounds according to the present invention. […]
The antitumor activity of the test compounds was assessed for the following biological characteristics; the degree of inhibition of the tumor growth, survival of animals on the 10th day after inoculation of the tumor cells, life span of the animals.

In data set [3] the test system is cell immunity. Briefly: Effect on cell immunity: time of rejection of a skin graft in tumor-carriers. Type of data set: in vivo, male rats of the Vistar line. On the procedure: (§1) The immunological activity of the compound II according to the present invention was studied by variation of the characteristics of cellular and humoral immunity.
(§2) The effect of the compound II according to the present invention on the cell immunity was assessed by the time of rejection of a skin graft in the tumor-carriers. The effect on the humoral immunity was assessed by the number of antibody-forming cells in the spleen and antibodies in the blood serum formed in response to immunization, with ram ertyhrocytes, of both intact animals and the tumor-carriers.
The effect of the compound II according to the present invention on the cell immunity was studied on male rats of the Vistar line with a mass of 150-200 g. The animals were subjected to transplantation, by a standard method, of a skin graft of 2×3 cm size taken from rats of the August line. Then the animals were inoculated, under the thigh skin, with 2×10^8 cells of a regrafted strain of Schvetz's erythroleukosis.
CDDP was administered in a solution, while polymethylsiloxane and the compound II of the present invention--as a powder which was introduced into an opened abdominal cavity following to above-described procedure. The intact animals were used as a control. The time of rejection of the skin graft was fixed by variation of its temperature, colour and elasticity.

Data set [4] has as its system inner organs. Briefly: Autopsy, morphological and histological investigations of inner organs. The settings on record: doses lesser than the toxic one, 30th day after administration. It counts as in vivo, rats; mice. The protocol: The dead animals were subjected to an autopsy and morpholigical and histological investigations of the inner organs were performed. The animals administered with the compounds in doses lesser than the toxic one were slaughtered after 3, 7, 14 and 30 days. Their inner organs were also subjected to an autopsy.

For data set [5], the system named is ovary cancer. The data set can be described thus: Clinical tests in patients with ovary cancer of the IV clinical stage. It counts as in vivo, human patients. An excerpt: Depending on the treatment method all the patients were divided into 2 groups.
The test system of data set [6] is humoral immunity. The data set can be described thus: Effect on humoral immunity: antibody-forming cells in spleen and antibodies in blood serum of tumor-carriers. Type of data set: in vivo, rats of the Vistar line. The protocol:
as §1, §2
Use was made of rats of the Vistar line which were incoulated, under the thigh skin, with 2×10^8 cells of a regrafted strain of Schvetz'erthroleukosis. […] On the 8th day after regrafting of the tumor the animals were subjected to immuniation by way of an intravenous administration of ram erythrocytes in the dose of1×10^6 cells. 4 days after immunization the animals were slaughtered by decapitation against the background of ethereal narcosis, the spleen was taken out and the content of antobidy-forming cells was determined threein by Erne'method, as well as titres of agglutinines and hemolysines in the peripheral blood using known methods.
The content of antibody-forming cells was determined for 10^6 splenocytes and for the entire mass of the spleen.

Setting [7] is: group I: compound II then CDDP, 1 year after operation, group II: CDDP only, 9 months-1 year.
[8] abbreviates: group I: compound II then CDDP, 2-3.5 years after the operation, group II: CDDP only.
[9] abbreviates: 4 days after immunization with ram erythrocytes.

`N.N.[Cl][Pt][Cl]` [CDDP, cis-dichlorodiammonioplatinum (II)]: the “Effectiveness of therapy of ovary carcinoma” value in data set [1] was 100%. The same compound yielded a Survival of animals in data set [2] (on the 10th day after inoculation of the tumor cells) of 80%. The compound also returned a Life span in data set [2] (rats with Schvetz's erythroleukosis) of 11.5 ± 0.5 days. Moreover, in data set [2] (rats, single intraperitoneal or intratumoral administration on 4th day after inoculation), the “Degree of inhibition of the tumor growth” value is on record as 78%. The “Effect on characteristics of the cell immunity of tumor-carriers (in words)” value in data set [3] was “does not substantially affect the characteristics of the cell immunity of the tumor-carriers”. Besides, the “Time of rejection of a skin graft” value in data set [3] (intraperitoneal CDDP 5.6, polymethylsiloxane 2,000, compound II 550 mg/kg) amounted to 13.5 ± 0.5 days. For the same compound, in data set [4], the “Degree and restoration of histological changes” value is “pronounced to even greater extent than in the case of administration of the compounds according to the present invention, they were only partly restored on the 30th day after administration”. Also, the “Full remission, number of patients” value in data set [5] (group I (30): compound II then CDDP, group II (47): CDDP only) is listed as 14 patients. In addition, in data set [5] (group I (30 patients): compound II during operation then intraperitoneal CDDP, 2-3.5 years, group II (47 patients): CDDP only), the “Full remission, share of patients” value worked out at 30%. In data set [5] (setting [7]), the “Deaths, number of patients” value is 9 persons and the “Deaths, share of patients” value worked out at 19%. Besides, in data set [5] (setting [8]), the “Partial remission and stabilization of the process, number of patients” value came to 14 persons; the “Partial remission and stabilization of the process, share of patients” value is recorded as 30%. In addition, in data set [5] (group II: CDDP only), the “Recurrence of the tumor growth, number of patients” value amounted to 10 persons and the “Recurrence of the tumor growth, share of patients” value is given as 21%. Also, the “Effect on humoral immunity (in words)” value in data set [6] is given as “inhibits the humoral immunity”. For the same compound, in data set [6] (setting [9]), the “Content of antibody-forming cells for the entire spleen” value is recorded as “(36.42 ± 2.15) × 10^3” and the “Content of antibody-forming cells per 10^6 of splenocytes” value was 20.50 ± 2.15.

(Values after patent publication US5087712A, “Derivatives of platinum (II) with polymethylsiloxane, method for preparing same and antitumor agent based thereon” (priority 1989, dated 1992).)
